# Measured values published in patent US20220347323A1, “Positron Emission Tomography Guided Delivery of Mitochondral Complex I Inhibitors” (priority 2019, published 2022).
# Entries after “also recorded” stand apart in the source; their conditions may differ.
# Key:
# Kras/Lkb1 lung tumors [1] = assay: Treatment of Kras/Lkb1 mice, tumor burden; format: in vivo, mouse
# A549 and RH2 cells = assay: Cell viability of human ADC (A549) and SCC (RH2) cell lines; format: cell-based; conditions: A549 vs RH2, 48 hr, low doses
# Text: (§1) Experiments were repeated twice.
# Kras/Lkb1 lung tumors [2] = assay: Ki67 staining of TTF1+ and CK5+ Kras/Lkb1 tumors after treatment; format: in vivo, mouse; conditions: 15 mg/kg/day, 12 days
# A549 cells [3] = assay: Mitochondrial membrane potential (ΔΨ) by TMRE flow cytometry, A549; format: cell-based, human; conditions: A549, short-term treatment 3 hr
# Protocol: Experiments were conducted by analyzing TMRE fluorescence using flow cytometry. […] Cells were resuspended in 0.5 ml DMEM with 5% FBS containing different concentrations of phenformin or oligomycin or FCCP as indicated in figure legends. […] Cells were washed twice in phenol red free DMEM and cellular fluorescence was acquired with a BD LSRII analyzer at UCLA Flow Cytometry Core. Data was analyzed with Flowing Software.
# [4] = system: mouse adenocarcinoma and squamous cell carcinoma cell lines; assay: Cell viability of mouse adenocarcinoma and squamous cell carcinoma cell lines; format: cell-based; conditions: 48 hr, low doses
# Text: as §1
# Kras/Lkb1 lung tumors [5] = assay: 18FBnTP PET of lung tumors in Kras/Lkb1 GEMMS before and after treatment; format: in vivo, mouse; conditions: 5 days, vs vehicle
# Text: We performed studies with the genetically engineered mouse model of lung cancer using Kras-Lox-Stop-Lox-G12D; Lkb1 Lox/Lox; Rosa26-Lox-Stop-Lox-Luc mice (KL) as described previously [Ref. 33]. Briefly, lung tumors were induced by intranasal administration of 5×10^5 transduction units of Lenti-PGK-Cre (Cat. #FCT071, Kerafast,) as previously described [Ref. 9, 33]. Lentiviral delivery of Cre recombinase to KL mice leads to near 100% development of lung adenocarcinomas [Ref. 36]. KL mice that were inhaled with LentiCre were used in studies with Phenformin treatment. For studies where mice were imaged with both ^18FBnTP and ^18F-FDG probes, KL mice were inhaled with Adenoviral Cre, which leads to development of both ADC and SCC tumors. For all treatments, KL mice were imaged with ^18FBnTP and sorted into two groups based on tumor maximum percent injected dose per gram (%ID/g) values, so that two groups would have similar maximum %ID/g values. Treatment was initiated on the same day or on the following day after ^18FBnTP imaging. Mice were treated with 125 mg/kg/day phenformin for 5 days or 15 mg/kg/day IACS-010759 for 12 days. The drugs were delivered by oral gavage. All experimental procedures that were performed on mice were approved by the UCLA Animal Research Committee (ARC). Both male and female mice were used in all experiments and no preference in mouse gender was given for any of the studies.
# In order to reduce variability between mice imaged with ^18FBnTP, maximum percent injected dose per gram (%ID/g) for each tumor was normalized to maximum %ID/g of heart as indicated in the figures. For waterfall plots in FIG. 2m and FIGS. 8e-8f, we calculated % change in the uptake of the ^18FBnTP probe post-treatment relative to pre-treatment using maximum %ID/g of the tumor that was normalized to maximum %ID/g of the heart for each mouse.
# Kras/Lkb1 lung tumors [6] = assay: Cleaved caspase 3 and Ki67 staining of Kras/Lkb1 tumors; format: in vivo, mouse; conditions: short-term 5 day treatment
# Protocol: After the fixation step in 10% neutral buffered formalin overnight, lungs were transferred to 70% ethanol and further processing and embedding was done by the TPCL at UCLA. The following antibodies were used: anti-CK5 (EP1601Y) (abcam, ab52635 1:100), anti-TTF1 (8G7G3/1) (Dako, 1:1000), anti-Ki67 (SP6) (Thermo-Scientific, RM-9106-SO 1:200), anti-Glut1 (alpha-diagnostic, GT11-A, 1:400). Slides were scanned onto a ScanScope AT (Aperio Technologies Inc.). Digital slides were analyzed with Definiens and QuPath software.
# Kras/Lkb1 tumors = conditions: cited from earlier work
# [7] = Phenformin quantification in lung tumors by LC/MS; format: in vivo, mouse; conditions: 100-200 mg/kg oral gavage, 5 days, vs vehicle
# Protocol: Tumors were homogenized with a Tissue Master (Omni international) in 1 ml chilled 80% Methanol. Tumor suspensions were spun down at 4° C. for 5 min at 17,000g, and the top layer taken as extracted metabolites. The volume equivalent of 1 mg of tumor was transferred into glass vials and the samples were dried with a EZ2-Elite lyophilizer (Genevac). Dried metabolites were re-suspended in 100 μl of 50%:50% acetonitrile (ACN):dH20 solution; 10 μl of these suspensions were injected per analysis. Samples were run on a Vanquish (Thermo Scientific) UHPLC system with mobile phase A (5 mM NH4AcO, pH 9.9) and mobile phase B (ACN). […] The UHPLC was coupled to a Q-Exactive (Thermo Scientific) mass analyzer running in positive mode at 3.5 kV with an MS1 resolution of 70,000. Metabolites were identified using exact mass (MS1), retention time, and fragmentation patterns (MS2) at normalized collision energy (NCE) 35. Quantification was performed via area under the curve (AUC) integration of MS1 ion chromatograms with the MZmine 2 software package. For the quantification of absolute moles of phenformin, one tumor from the vehicle group was selected to provide a representative tumor small molecular matrix. […]
# A549 cells [8] = assay: In vitro 18FBnTP uptake assay, A549; format: cell-based, human; conditions: A549, 1 mM, 3 hr
# A549 cells [9] = assay: Respirometry (Seahorse OCR), A549; format: cell-based, human; conditions: A549, 1 mM, 45 min
# Protocol: Experiments were conducted on a Seahorse XF96 Extracellular Flux Analyzer (Agilent Technologies) in order to measure oxygen consumption rate (OCR) and extracellular acidification rate (ECAR). […] On the day of the experiment, assay medium (Seahorse XF Base Medium supplemented with 2 mM L-glutamine, 1mM Pyruvate and 10 mM glucose) was freshly prepared. The cells were washed twice with assay medium and brought to a final volume of 175 μL per well. The XF96 plate was placed in a 37° C. incubator without CO2 for 30 minutes prior to loading the plate into the instrument. Injection of compounds during the assay included: the mitochondrial ATP Synthase inhibitor oligomycin (final concentration of 2 μM); the chemical uncoupler, FCCP (final concentration of 1 μM); and the Complex I inhibitors rotenone (final concentrations 2 μM) and phenformin (final concentration 1 mM) and Complex III inhibitor antimycin A (final concentrations of 2 μM). […] Activity of complex I was measured in permeabilized cells using XF PMP assay where complex I dependent OCR was measured by determining OCR in the presence of pyruvate and malate (as substrates for complex I) before and after addition of rotenone (complex I inhibitor).
SMILES,"tumor burden (percent of lung area occupied by tumor) (Kras/Lkb1 lung tumors [1]; 15 mg/kg/day oral gavage, 12 days, vs vehicle)",sensitivity of 18FBnTP POS tumors to complex I inhibition (Kras/Lkb1 lung tumors [1]; Kras/Lkb1 mice),sensitivity (cell viability) of lung ADC line vs SCC line (A549 and RH2 cells),Ki67 positive cells in TTF1+ ADCs (Kras/Lkb1 lung tumors [2]),response of CK5+ SCCs (Ki67) (Kras/Lkb1 lung tumors [2]),ΔΨ measured by TMRE staining (A549 cells [3]),sensitivity (cell viability) of lung ADC line vs SCC line [4],18FBnTP uptake in lung tumors post-treatment (Kras/Lkb1 lung tumors [5]; 125 mg/kg/day oral gavage),"18FBnTP uptake in lung tumors, three independent experiments (Kras/Lkb1 lung tumors [5]; 125 mg/kg/day)",change in 18FBnTP uptake post-treatment to pre-treatment (Kras/Lkb1 lung tumors [5]; 125 mg/kg/day),"cleaved caspase 3 and Ki67 staining (apoptosis, proliferation) (Kras/Lkb1 lung tumors [6])","cellular apoptosis after longer treatment (Kras/Lkb1 tumors; 4-8 weeks treatment, Ref. 9,19)",sensitivity of Kras/Lkb1 tumors (Kras/Lkb1 tumors; Ref. 9),"response of lung SCC tumors from Kras/Lkb1 mice (Kras/Lkb1 tumors; Ref. 19,33)",phenformin in lung tumor tissue by mass spectrometry [7],18FBnTP uptake (gamma counter) (A549 cells [8]),cellular OXPHOS (OCR) by respirometry (A549 cells [9])
Cc1nc(-c2nc(-c3ccc(OC(F)(F)F)cc3)no2)nn1Cc1cccc(N2CCC(S(C)(=O)=O)CC2)c1 [IACS-010759],significant reduction in tumor burden,sensitive,more sensitive,significant reduction in Ki67 positive cells,refractory,–,–,–,–,–,–,–,–,–,–,–,–
[H]/N=C(/N)N/C(=N/[H])NCCc1ccccc1 [phenformin],–,–,more sensitive,–,–,significantly reduced ΔΨ in a dose dependent manner,more sensitive,significant reduction; also recorded: suppresses,significant reduction,significant drop in tracer uptake,no evidence of phenformin induced apoptosis or reduced cell viability; also recorded: does not induced changes in proliferation or apoptosis,resulted in cellular apoptosis,sensitive,refractory,significant increase in phenformin in tumors,significantly reduced,significant reduction of cellular OXPHOS
